Source: publication PMC7997382 (2020)

Key:
Assay in all cases: ESI-MS, negative mode
[1] = system: ssDNA1 (DNA, single strand) GTCCATGCCCCAGGCCCACC; details: ammonium acetate 15 mM, 10-fold molar excess over dsDNA, 24 h, ssDNA in equilibrium with dsDNA
[2] = system: ssDNA2 (DNA, single strand) GGTGGGCCTGGGGCATGGAC; details: ammonium acetate 15 mM, 10-fold molar excess over dsDNA, 24 h, ssDNA in equilibrium with dsDNA
[3] = system: 20 mer double strand DNA (dsDNA) (DNA, duplex) GTCCATGCCCCAGGCCCACC/GGTGGGCCTGGGGCATGGAC; details: ammonium acetate 15 mM, 10-fold molar excess of compound, room temperature, 24 h, diluted 1:10, pH 6.8

Row | binding ([1]; no adduct peak) | binding ([2]; no adduct peak) | binding [3] | binding ([1]; partial binding) | binding ([2]; partial binding) | binding ([3]; covalent, each cisplatin lost both chloride ligands) | Compound
1 | no | no | yes | – | – | – | C=C.CC(=O)OC[C@H]1O[C@@H](N2[C]N(C)C=C2)[C@H](OC(C)=O)[C@@H](OC(C)=O)[C@@H]1OC(C)=O.Cc1ccc2ccc3ccc(C)nc3c2n1.[CH3-].[Pt+2]
2 | – | – | yes | weak | weak | – | CC(=O)OC[C@H]1O[C@@H](N2[C]N(C)C=C2)[C@H](OC(C)=O)[C@@H](OC(C)=O)[C@@H]1OC(C)=O.[CH3-].[CH3-].[CH3-].[Pt+4].c1cnc2c(c1)ccc1cccnc12
3 | – | – | – | – | – | yes | N.N.[Cl-].[Cl-].[Pt+2]
